Results from BigSolDB 2.1.

CCOC(=O)[C@@H](N)CCc1ccccc1.Cl
solubility (mole fraction)
Conditions	283.15 K	288.15 K	293.15 K	298.15 K	303.15 K	313.15 K	323.15 K
in 1,4-dioxane	–	0.00221	0.00266	–	0.00381	0.00845	0.0142
in 2-butanone	0.00022	–	0.00031	–	0.0004	0.00073	0.0013
in acetone	0.00068	–	0.00117	–	0.00182	0.00297	0.00505
in dichloromethane	0.0172	0.0233	0.0303	0.0386	0.0489	–	–
in ethanol	0.031	–	0.0393	–	0.0505	0.0666	0.0867
in isobutanol	0.0101	–	0.014	–	0.0203	0.0311	0.0472
in isopropanol	0.00726	–	0.0096	–	0.0135	0.0192	0.0286
in methyl acetate	4e-05	–	5e-05	–	0.00012	0.00024	0.00034
in n-butanol	0.0128	–	0.0163	–	0.022	0.0253	0.0277
in n-pentanol	0.0161	–	0.0215	–	0.0294	0.0427	0.0595
in n-propanol	0.019	–	0.0262	–	0.0353	0.0487	0.0679
in sec-butanol	0.00416	–	0.00614	–	0.00846	0.013	0.0257
